Tested on: growth hormone (GH)
Assay: GRF test: GRF-induced plasma GH response (radioimmunoassay)
Type: in vivo, human
Details: for GRF-induced GH response: GRF(1-44)NH2 100 mcg i.v. bolus
Source text: The subjects were divided into three groups:
(a) controls (N =9): 5 females and 4 males (age =70.10±2.76 years; range =66-75);
(b) inpatients with early onset senile dementia of the Alzheimer type (EOSDAT) (N =10): 5 females and 5 males (age 65.00±3.31 years; range =57-69); and
(c) inpatients with late onset senile dementia of the Alzheimer type (LOSDAT) (N =10): 5 females and 5 males (age =75.70±3.77 years; range =70-82).
All the SDAT patients met the DSM-III criteria for primary degenerative dementia and rigorous diagnostic criteria for SDAT. […] In LOSDAT, the onset of the disease occurred after the age of 60. The degree of severity of the dementia was assessed with Hasegawa's Dementia Rating Scale (DRS) (Hasegawa K., Inoue K. "An investigation of dementia rating scale for the elderly." Seishinigaku 16:965-969, 1974), Folstein's Mini-Mental State (MMS) Test (Folstein M. F., Folstein S., McHugh P. "Mini-mental state: a practical method for grading the cognitive state of patients for the clinician." J. Psychiat. Res. 12:189-198, 1975) and a modified model of the Brief Cognitive Rating Scale (BCRS) and Functional Assessment Stages (FAST) of Reisberg (Reisberg B., Ferris S. H., De Leon M. J. "Senile dementia of the Alzheimer type: Diagnosis and differential diagnostic features with special reference to functional assessment staging." in: Traber J., Gispen W. H. (Ed). Senile dementia of the Alzheimer type. pp 18-37, Springer-Verlag, Berlin, 1985). Concomitant pathology other than SDAT was discarded under a careful screening of the subjects with CT Scan, EEG, ECG and complementary laboratory data. Current diagnosis or history of SDM-III major affective disorder or schizophrenia as well as history of endocrine disease were criteria for exclusion. All of the control subjects were free of psychiatric and endocrine illness. All subjects included had been drug-free for a minimum of 7 days before testing.
A 21-gauge indwelling venous needle with an attached three-way stopcook was inserted into the antecubital vein. Baseline blood samples for GH determination were collected immediately before testing. GRF(1-44)NH2was then injected as an intravenous bolus (100 mcg), and blood samples were obtained at 15, 30, 45, 60, 90 and 120 minutes after injection for determination of GH concentrations in plasma. The plasma GH levels were measured by radioimmunoassay using a commercial GH-RIA-Kit (Dainabot Co. Ltd. Tokyo). The intra- and inter-assay coefficients of variation were 6.9% and 10.6%, respectively.
The results were analyzed statistically by the Student's test, analysis of variance (ANOVA) and the Mann-Whitney test using a NEC PC-9801VM2 computer.

## growth hormone releasing factor [GRF]
CONTROL (females), 0 min (basal, before GRF(1-44)NH2 100 mcg i.v.)
  plasma GH: 1.03 ± 0.94 ng/mL
CONTROL (females), 15 min after GRF(1-44)NH2 100 mcg i.v.
  plasma GH: 3.09 ± 1.58 ng/mL
CONTROL (females), 30 min after GRF(1-44)NH2 100 mcg i.v.
  plasma GH: 3.68 ± 2.09 ng/mL
CONTROL (females), 45 min after GRF(1-44)NH2 100 mcg i.v.
  plasma GH: 4.28 ± 3.38 ng/mL
CONTROL (females), 60 min after GRF(1-44)NH2 100 mcg i.v.
  plasma GH: 2.97 ± 1.96 ng/mL
CONTROL (females), 90 min after GRF(1-44)NH2 100 mcg i.v.
  plasma GH: 2.04 ± 1.38 ng/mL
CONTROL (females), 120 min after GRF(1-44)NH2 100 mcg i.v.
  plasma GH: 1.10 ± 0.95 ng/mL
CONTROL (males), 0 min (basal, before GRF(1-44)NH2 100 mcg i.v.)
  plasma GH: 1.07 ± 0.92 ng/mL
CONTROL (males), 15 min after GRF(1-44)NH2 100 mcg i.v.
  plasma GH: 2.21 ± 1.87 ng/mL
CONTROL (males), 30 min after GRF(1-44)NH2 100 mcg i.v.
  plasma GH: 3.16 ± 2.76 ng/mL
CONTROL (males), 45 min after GRF(1-44)NH2 100 mcg i.v.
  plasma GH: 5.17 ± 3.46 ng/mL
CONTROL (males), 60 min after GRF(1-44)NH2 100 mcg i.v.
  plasma GH: 3.17 ± 2.61 ng/mL
CONTROL (males), 90 min after GRF(1-44)NH2 100 mcg i.v.
  plasma GH: 1.88 ± 1.87 ng/mL
CONTROL (males), 120 min after GRF(1-44)NH2 100 mcg i.v.
  plasma GH: 0.91 ± 0.87 ng/mL
EOSDAT
  delay of GH response relative to the small peak in control subjects: about 15 minutes
EOSDAT (females), 0 min (basal, before GRF(1-44)NH2 100 mcg i.v.)
  plasma GH: 1.92 ± 1.52 ng/mL
EOSDAT (females), 15 min after GRF(1-44)NH2 100 mcg i.v.
  plasma GH: 2.23 ± 1.90 ng/mL
EOSDAT (females), 30 min after GRF(1-44)NH2 100 mcg i.v.
  plasma GH: 6.26 ± 2.05 ng/mL
EOSDAT (females), 45 min after GRF(1-44)NH2 100 mcg i.v.
  plasma GH: 14.86 ± 3.57 ng/mL
EOSDAT (females), 60 min after GRF(1-44)NH2 100 mcg i.v.
  plasma GH: 19.74 ± 4.86 ng/mL
EOSDAT (females), 90 min after GRF(1-44)NH2 100 mcg i.v.
  plasma GH: 11.28 ± 5.72 ng/mL
EOSDAT (females), 120 min after GRF(1-44)NH2 100 mcg i.v.
  plasma GH: 5.09 ± 3.01 ng/mL
EOSDAT (males), 0 min (basal, before GRF(1-44)NH2 100 mcg i.v.)
  plasma GH: 1.99 ± 1.67 ng/mL
EOSDAT (males), 15 min after GRF(1-44)NH2 100 mcg i.v.
  plasma GH: 2.70 ± 1.92 ng/mL
EOSDAT (males), 30 min after GRF(1-44)NH2 100 mcg i.v.
  plasma GH: 5.49 ± 1.91 ng/mL
EOSDAT (males), 45 min after GRF(1-44)NH2 100 mcg i.v.
  plasma GH: 6.87 ± 2.84 ng/mL
EOSDAT (males), 60 min after GRF(1-44)NH2 100 mcg i.v.
  plasma GH: 11.52 ± 2.82 ng/mL
EOSDAT (males), 90 min after GRF(1-44)NH2 100 mcg i.v.
  plasma GH: 7.41 ng/mL
EOSDAT (males), 120 min after GRF(1-44)NH2 100 mcg i.v.
  plasma GH: 2.73 ± 1.71 ng/mL
EOSDAT females
  rise of plasma GH levels after GRF injection: 19.74 ± 4.86 ng·mL
EOSDAT males
  rise of plasma GH levels after GRF injection: 11.52 ± 2.82 ng/mL
EOSDAT responders
  rise of plasma GH levels after GRF injection, individual range: 5.5 to 28.75 ng/mL
EOSDAT, 60 minutes after GRF(1-44)NH2 100 mcg i.v. bolus
  maximum peak of plasma GH: 15.61 ± 5.71 ng/mL
LOSDAT (females), 0 min (basal, before GRF(1-44)NH2 100 mcg i.v.)
  plasma GH: 1.09 ± 1.01 ng/mL
LOSDAT (females), 15 min after GRF(1-44)NH2 100 mcg i.v.
  plasma GH: 2.04 ± 1.01 ng/mL
LOSDAT (females), 30 min after GRF(1-44)NH2 100 mcg i.v.
  plasma GH: 3.65 ± 2.35 ng/mL
LOSDAT (females), 45 min after GRF(1-44)NH2 100 mcg i.v.
  plasma GH: 4.68 ± 3.18 ng/mL
LOSDAT (females), 60 min after GRF(1-44)NH2 100 mcg i.v.
  plasma GH: 4.97 ± 3.86 ng/mL
LOSDAT (females), 90 min after GRF(1-44)NH2 100 mcg i.v.
  plasma GH: 4.04 ± 3.22 ng/mL
LOSDAT (females), 120 min after GRF(1-44)NH2 100 mcg i.v.
  plasma GH: 2.44 ± 2.05 ng/mL
LOSDAT (males), 0 min (basal, before GRF(1-44)NH2 100 mcg i.v.)
  plasma GH: 0.95 ± 0.98 ng/mL
LOSDAT (males), 15 min after GRF(1-44)NH2 100 mcg i.v.
  plasma GH: 2.13 ± 0.94 ng/mL
LOSDAT (males), 30 min after GRF(1-44)NH2 100 mcg i.v.
  plasma GH: 2.81 ± 1.90 ng/mL
LOSDAT (males), 45 min after GRF(1-44)NH2 100 mcg i.v.
  plasma GH: 3.61 ± 3.51 ng/mL
LOSDAT (males), 60 min after GRF(1-44)NH2 100 mcg i.v.
  plasma GH: 4.09 ± 2.56 ng/mL
LOSDAT (males), 90 min after GRF(1-44)NH2 100 mcg i.v.
  plasma GH: 3.08 ± 2.22 ng/mL
LOSDAT (males), 120 min after GRF(1-44)NH2 100 mcg i.v.
  plasma GH: 1.64 ± 0.82 ng/mL
LOSDAT
  GRF-induced GH response: absent
Control subjects
  GRF-induced GH response: absent
